# Reference: paper PMC4593073, “Non-invasive imaging and cellular tracking of pulmonary emboli by near-infrared fluorescence and positron-emission tomography” (Nature Communications, 2015)
# Where no end group is shown, it is not given here.
# How the values were obtained:
# Cells grown on plastic = assay: Uptake of the cell viability dye DRAQ7; assay type: cell-based; conditions: 50 μM, 2 hrs
# Method: Discrimination between on and off states in PAR1–RIP observed in vitro translated in vivo. To gauge the interaction of RIP probes with cells, we measured their toxicity at ∼6- to 600-fold excess of the intended use in vivo. […] Inclusion of the highly specific thrombin inhibitor hirudin blocked these protease-dependent effects and confirmed the key role for thrombin in this process. Cells grown on plastic were incubated with […] pro-peptide to confirm that uptake of the fluorescent dye DRAQ7 only occurred in the protease-treated form (Supplementary Fig. 3a) not the pro-peptide alone (Supplementary Fig. 3b). Concentrations required to mediate toxicity in cell culture exceed those used in animal studies described below by several orders of magnitude, but provide a useful readout nonetheless.
# Supplementary Figure 3 – The cellular effects of the active PAR1-RIP peptide. High-doses (50 μM) of the cleaved PAR1-RIP lead to
# concentrations for extended periods of time (2 hrs). Scale bars, 20 µm.
# (1 picture or pasted object on this page, not shown here)
# thrombin (factor IIa) = target: T1, thrombin (factor IIa) (Homo sapiens, UniProt P00734); assay: Peptide kinetics: proteolysis of the probe followed by HPLC/mass spectrometry; assay type: biochemical; conditions: HPLC, 37 °C, PBS pH 7.4, mean±s.d., n=3
# T1 construct: Human clotting factors IIa (thrombin), VIIa, IXa, Xa, XIa, plasmin and aPC; purchased Haematologic Technologies
# Description: Comparison of the rates of protease-mediated hydrolysis of a tripeptide chromogenic substrate (P3–P1), quenched oligopeptide substrate (P4–P4′) and our PAR1–RIP probe (P4–P14′) emphasize the value of a larger surface area of interaction between enzyme and substrate in RIP probes. When substrates have limited potential contacts with the protease, and the majority of them are shared with homologous enzymes, their turnover is non-specific. For example, the chromogenic substrate d–Phe–Pro–Arg–paranitroanilide is not only an excellent substrate for thrombin but also for many other proteases (Fig. 3f). As substrate length increases to include four additional residues on the prime side of the scissile bond, specificity increases 10-fold (Fig. 3g). Inclusion of the 10 amino acids responsible for exosite binding to thrombin further increases the relative specificity eightfold and reduces the KM to a physiologically relevant value of 0.2±0.1 μM (mean±s.d., n=3; Fig. 3h). […]
# Human clotting factors IIa (thrombin), VIIa, IXa, Xa, XIa, plasmin and aPC were obtained from Haematologic Technologies (Vermont, USA). Kinetics studies of probe digestion were measured by HPLC over the course of 1 h at 37 °C, using 10 nM of enzyme and 1 μM of PAR1–RIP in PBS (pH 7.4). […]
# [1] = Acute toxicology: serum panel of hepatic and renal functions; assay type: in vivo, C57BL/6J mice; set-up: Phosphorus / Calcium: unit not given here; conditions: mean±s.e.m., n=3
# Method: To address the safety profile of this novel functional imaging platform, PAR1–RIP probe was administered in C57BL/6J mice at a concentration threefold higher than used for the imaging studies (150 picomoles, 100 μl). […] The serum was pipetted into clean tubes and frozen before shipment to IDEXX BioResearch (Sacramento, CA) for a comprehensive panel of hepatic and renal functions. All tests were performed using an Olympus 5400 analyser. Measurements of the following enzymes and electrolytes were provided: alkaline phosphatase, alanine aminotransferase, aspartate aminotransferase, creatine phosphokinase, total protein, direct bilirubin, indirect bilirubin, total bilirubin, globulin, blood urea nitrogen, creatinine, cholesterol, glucose, calcium, phosphorus, bicarbonate, chloride, potassium, sodium and haemolysis index.
# Toxicology results are presented as mean±s.e.m. Data were analysed using GraphPad Prism (GraphPad Software Inc., San Diego, CA) and statistical differences among experimental groups of animals were detected using one-way analysis of variance (ANOVA) followed by Dunnett’s post-test; P<0.05 was considered statistically significant.
# [2] = mouse serum 6 hs after 150 picomoles
# [3] = mouse serum 6 hs after 150 picomoles, marked *
# [4] = mouse serum 48 hs after 150 picomoles
# [5] = mouse serum 72hs after 150 picomoles
# [6] = mouse serum 72hs after 150 picomoles, marked *
sequence,measurement,setting,value
FVQWFSKFLGKLLPR [thrombin-treated PAR1–RIP],uptake of cell viability dye DRAQ7,Cells grown on plastic,uptake of cell viability dyes including DRAQ7
FVQWFSKFLGKLLPRSFLLQDPNDQYEPF [PAR1–RIP],Km,thrombin (factor IIa),0.2 ± 0.1 µM
same,Alanine Aminotransferase (ALT),[1]; [2],29.7±1.4 U/L
same,Albumin,[1]; [2],2.7 ± 0.1 g/dL
same,Aspartate Aminotransferase (AST),[1]; [2],61.7 ± 4.0 U/L
same,Blood Urea Nitrogen (BUN),[1]; [2],27.0 ± 2.6 mg/dL
same,Calcium,[1]; [2],9.1 ± 0.1
same,Chloride,[1]; [2],116.0 ± 0.6 mEq/ L
same,Cholesterol,[1]; [2],79 ± 0.6 mg/dL
same,Creatinine,[1]; [2],0.2 ± 0.0 mg/dL
same,Creatinine Phosphokinase (CPK),[1]; [2],144.7 ± 27.4 U/L
same,Direct Bilirubin,[1]; [2],0.0 ± 0.0 mg/dL
same,Globulin,[1]; [2],1.9 ± 0.0 g/dL
same,Glucose,[1]; [2],238.7 ± 2.9 mg/dL
same,Indirect Bilirubin,[1]; [2],0.1 ± 0.0 mg/dL
same,Phosphorus,[1]; [2],6.9 ± 0.2
same,Potassium,[1]; [2],4.7 ± 0.1 mEq/ L
same,Sodium,[1]; [2],152.3 ± 0.3 mEq/ L
same,Total Bilirubin,[1]; [2],0.1 ± 0.0 mg/dL
same,Total Protein,[1]; [2],4.6 ± 0.1 g/dL
same,Alkaline phosphatase,[1]; [3],149.7 ± 12.8 U/L
same,Bicarbonate,[1]; [3],13.3 ± 0.3 mEq/ L
same,Alanine Aminotransferase (ALT),[1]; [4],26.3 ± 0.3 U/L
same,Albumin,[1]; [4],2.6 ± 0.1 g/dL
same,Alkaline phosphatase,[1]; [4],120.7 ± 6.4 U/L
same,Aspartate Aminotransferase (AST),[1]; [4],57.6 ± 6.3 U/L
same,Bicarbonate,[1]; [4],15.0 ± 0.0 mEq/ L
same,Blood Urea Nitrogen (BUN),[1]; [4],23.7 ± 1.4 mg/dL
same,Calcium,[1]; [4],9.0 ± 0.1
same,Chloride,[1]; [4],110.3 ± 0.8 mEq/ L
same,Creatinine,[1]; [4],0.2 ± 0.0 mg/dL
same,Creatinine Phosphokinase (CPK),[1]; [4],150.3 ± 38.0 U/L
same,Direct Bilirubin,[1]; [4],0.1 ± 0.0 mg/dL
same,Globulin,[1]; [4],2.0 ± 0.1 g/dL
same,Glucose,[1]; [4],203.0 ± 3.5 mg/dL
same,Indirect Bilirubin,[1]; [4],0.1 ± 0.0 mg/dL
same,Phosphorus,[1]; [4],6.8 ± 0.2
same,Potassium,[1]; [4],4.6 ± 0.1 mEq/ L
same,Sodium,[1]; [4],153.3 ± 0.9 mEq/ L
same,Total Bilirubin,[1]; [4],0.12 ± 0.0 mg/dL
same,Total Protein,[1]; [4],4.6 ± 0.1 g/dL
same,Cholesterol,"[1]; mouse serum 48 hs after 150 picomoles, marked *",84.3 ± 3.5 mg/dL
same,Alanine Aminotransferase (ALT),[1]; [5],20.0±1.0 U/L
same,Albumin,[1]; [5],2.6 ± 0.0 g/dL
same,Alkaline phosphatase,[1]; [5],107.0 ± 7.8 U/L
same,Aspartate Aminotransferase (AST),[1]; [5],53.7 ± 12.2 U/L
same,Blood Urea Nitrogen (BUN),[1]; [5],26.7 ± 1.8 mg/dL
same,Calcium,[1]; [5],9.1 ± 0.2
same,Chloride,[1]; [5],110.3 ± 0.3 mEq/ L
same,Cholesterol,[1]; [5],82.7 ± 1.7 mg/dL
same,Creatinine,[1]; [5],0.2 ± 0.0 mg/dL
same,Creatinine Phosphokinase (CPK),[1]; [5],156.3 ± 67.7 U/L
same,Direct Bilirubin,[1]; [5],0.0 ± 0.0 mg/dL
same,Globulin,[1]; [5],1.9 ± 0.1 g/dL
same,Glucose,[1]; [5],268.0 ± 20.1 mg/dL
same,Indirect Bilirubin,[1]; [5],0.1 ± 0.0 mg/dL
same,Phosphorus,[1]; [5],7.4 ± 0.2
same,Potassium,[1]; [5],4.9 ± 0.2 mEq/ L
same,Total Bilirubin,[1]; [5],0.1 ± 0.0 mg/dL
same,Total Protein,[1]; [5],4.6 ± 0.1 g/dL
same,Bicarbonate,[1]; [6],18.3 ± 0.3 mEq/ L
same,Sodium,[1]; [6],150 ± 0.0 mEq/ L
